We go through five compounds from PMC11966747, “Next Generation Risk Assessment of Acute Neurotoxicity from Organophosphate Exposures Using the In Vitro–In Silico Derived Dietary Comparator Ratio” (Environmental Science & Technology, 2025).

Data set [1] concerns the target T1, erythrocyte AChE (Homo sapiens, UniProt P22303). Put plainly: Exposure Activity Ratio (EAR) and Dietary Comparator Ratio (DCR) calculation. Further details: from tissue; host or cells: human whole peripheral blood (erythrocytes), K2EDTA anticoagulant. Particulars: for calculated DCR value / calculated EARtest value: human. The protocol:
The DCR value for an exposure scenario was calculated as the ratio of EARtest and EARcomparator (eq 1). The EARtest is scenario-specific and was defined with the IC50 of the tested organophosphate oxon for in vitro erythrocyte AChE inhibition and the PBK model-simulated CBmaxoxon at the defined exposure level (eq 2).
The DCR-based predictions were evaluated by comparing the obtained DCR results with actual knowledge of the adverse health effects reported for the respective exposure scenarios. Adverse effects cannot be ruled out for human exposure scenarios with a DCR result greater than 1, while exposure scenarios with a DCR result less than or equal to 1 are considered to raise no safety concern.[18]−[20] Once validated as an adequate predicting tool, the DCR approach was applied for evaluating the safety of exposure scenarios, for which no information on the resulting toxic outcomes was reported at the defined dose levels for humans.

Data set [2] deals with T1, erythrocyte AChE. Particulars: cited from earlier work; for reported or expected adverse health outcome: ref Table S2.
For data set [3] the following is noted: QSAR-based prediction; ref Punt et al. 2022; Moerenhout et al. 2024; cited from earlier work.
Data set [4] deals with T1, erythrocyte AChE. Put plainly: biochemical. In kind it is biochemical. Also noted: from tissue; host or cells: human whole peripheral blood (erythrocytes), K2EDTA anticoagulant. On the procedure: Ethanol (UPLC/MS grade) was ordered from Biosolve (Valkenswaard, The Netherlands). Ultrapure water used for experiments was prepared with a Sartorius Arium Pro ultrapure water system (Göttingen, Germany). Human whole peripheral blood with K2EDTA as an anticoagulant was used for the in vitro AChE inhibition assay. K2EDTA acts as an inhibitor to the paraoxonase 1 (PON1) enzyme,[23] preventing the underestimation of the inhibition potential of organophosphate oxons due to the nontarget clearance by PON1 present in the blood samples.
Inhibition of erythrocyte AChE by the organophosphate oxon or the corresponding oxon metabolite of an organothiophosphate was measured in vitro using the method previously described.[12] The ethanolic stock solution of the test oxon was first diluted 100 times with sodium phosphate buffer (100 mM, pH 7.4), and 10 μL of the diluted solution was added to 90 μL of human whole blood sample in a 48-wells flat-bottom transparent plate (Greiner Bio-One, The Netherlands). After a 30 min incubation at room temperature, the blood samples were then diluted 20 times with ultrapure water containing 0.03% Triton-X 100 (v/v), and 20 μL of the Triton-diluted blood was incubated for 20 min following the addition of 460 μL of DTNB and 20 μL of ethopropazine (an inhibitor to plasma butyrylcholinesterase (BuChE)). After that, 100 μL of ATC was added (final concentrations of ethopropazine, DTNB, and ATC were 20 μM, 1 mM, and 1 mM, respectively), and the absorbance at 436 nm was measured continuously to detect the remaining AChE activity. Controls were carried out by replacing the test compound with sodium phosphate buffer to correct for any background absorbance.
The benchmark response (BMR) of 5% for erythrocyte AChE inhibition is a conservative end point for deriving an effect level, since regulatory bodies usually use a higher BMR (i.e., 10% or 20%) for risk assessment of acute OP pesticide exposure.[24],[25] The European Food Safety Authority (EFSA) Web tool (https://efsa.openanalytics.eu/) integrated with the R package PROAST (version 70.0) was employed for the BMC analysis (see Supporting Information).

[5] abbreviates: 1 mg/kg BW single oral, a volunteer, ref APVMA. 2000 (original data of Brown. 1966).
Setting [6] is: human whole blood, BMC analysis, PROAST model averaging.

One may read the IC50 as the concentration that inhibits the measured activity by half. A higher IC50 goes with weaker potency in that assay.

Like-named read-outs stand apart in the source and are kept apart here.

T1 sequence (P22303 32-617 isoform P22303-2 limits assumed): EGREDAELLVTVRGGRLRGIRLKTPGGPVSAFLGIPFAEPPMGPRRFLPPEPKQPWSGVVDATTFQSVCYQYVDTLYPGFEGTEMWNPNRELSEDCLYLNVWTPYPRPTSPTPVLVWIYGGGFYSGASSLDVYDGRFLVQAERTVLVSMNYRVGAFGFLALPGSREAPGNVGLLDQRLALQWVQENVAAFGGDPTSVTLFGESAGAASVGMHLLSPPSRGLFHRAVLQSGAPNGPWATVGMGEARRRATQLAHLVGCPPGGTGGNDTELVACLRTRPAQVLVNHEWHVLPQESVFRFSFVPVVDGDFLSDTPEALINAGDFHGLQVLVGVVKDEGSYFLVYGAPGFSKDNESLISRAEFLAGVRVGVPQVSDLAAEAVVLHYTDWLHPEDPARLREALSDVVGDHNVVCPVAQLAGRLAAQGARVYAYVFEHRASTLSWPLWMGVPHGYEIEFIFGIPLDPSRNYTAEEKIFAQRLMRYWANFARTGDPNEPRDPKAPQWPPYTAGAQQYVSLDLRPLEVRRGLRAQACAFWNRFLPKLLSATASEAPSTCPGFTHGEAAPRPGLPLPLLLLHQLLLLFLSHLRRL

For `CCOP(=O)(OCC)OC(=CCl)c1ccc(Cl)cc1Cl` [chlorfenvinphos], the “calculated DCR value” on erythrocyte AChE [1] (single oral 0.04 mg/kg BW) is 3.8 × 10^–3; on erythrocyte AChE [1] (single oral 1 mg/kg BW), 0.098. The “calculated EARtest value” on erythrocyte AChE [1] (single oral 0.04 mg/kg BW) is recorded as 1.5 × 10^–4; at erythrocyte AChE [1] (single oral 0.18 mg/kg BW), 6.8 × 10^–4; at erythrocyte AChE [1] (single oral 1 mg/kg BW) it was 3.9 × 10^–3. Also, the “Reported concomitant effects (signs and symptoms)” value is “No toxic signs was observed” on erythrocyte AChE [2] (0.04 mg/kg BW (3 mg), first dose of repeated exposure study, male volunteers, ref APVMA. 2000 (original data of Hunter et al. 1972)) and “no toxic signs” at erythrocyte AChE [2] (setting [5]). Further, the “Erythrocyte AChE inhibition” value on erythrocyte AChE [2] (setting [5]) is 40%. The “Reported erythrocyte AChE activity/inhibition” value at erythrocyte AChE [2] (setting [5]) is on record as “Decreased erythrocyte AChE”. In addition, the “reported or expected adverse health outcome” value at erythrocyte AChE [2] (human, single oral 0.04 mg/kg BW, 0.04 mg/kg) was “negative”; at erythrocyte AChE [2] (human, single oral 0.04 mg/kg BW, listed as Chlorfenvinphos, 0.04 mg/kg), “No”; at erythrocyte AChE [2] (human, single oral 1 mg/kg BW, listed as Chlorfenvinphos, 1 mg/kg) it was “No”. Also, the “Oral absorption rate constant” value in data set [3] was 0.81 h⁻¹.
For `CCOP(=O)(OCC)Oc1nc(Cl)c(Cl)cc1Cl` [chlorpyrifos oxon], the EARcomparator at erythrocyte AChE [1] (BMCL05/IC50 of chlorpyrifos oxon) is recorded as 0.039. At erythrocyte AChE [4] (setting [6]), the “BMCL05 (lower 95% confidence limit of benchmark concentration for 5% erythrocyte AChE inhibition)” value amounted to 0.015 µM and the “BMCU05 (upper 95% confidence limit of benchmark concentration for 5% erythrocyte AChE inhibition)” value came to 0.10 µM.
As to `CCOP(=S)(OCC)Oc1nc(Cl)c(Cl)cc1Cl` [chlorpyrifos], the “calculated DCR value” on erythrocyte AChE [1] (single oral 0.01 mg/kg BW) is reported as 4.6 × 10^–3; at erythrocyte AChE [1] (single oral 0.03 mg/kg BW), 0.014; on erythrocyte AChE [1] (single oral 0.1 mg/kg BW) it was 0.046; at erythrocyte AChE [1] (single oral 0.5 mg/kg BW), 0.23; on erythrocyte AChE [1] (single oral 1 mg/kg BW) it was 0.48; at erythrocyte AChE [1] (single oral 2 mg/kg BW), 1.0. Besides, the “calculated DCR value” at erythrocyte AChE [1] (single oral 214 mg/kg BW) was 38; at erythrocyte AChE [1] (single oral 300 mg/kg BW), 40. In addition, the “calculated EARtest value” on erythrocyte AChE [1] (single oral 0.01 mg/kg BW) is reported as 1.8 × 10^–4; on erythrocyte AChE [1] (single oral 0.012 mg/kg BW), 2.2 × 10^–4; on erythrocyte AChE [1] (single oral 0.03 mg/kg BW), 5.4 × 10^–4; at erythrocyte AChE [1] (single oral 0.1 mg/kg BW) it was 1.8 × 10^–3; on erythrocyte AChE [1] (single oral 0.5 mg/kg BW) it was 9.2 × 10^–3; at erythrocyte AChE [1] (single oral 1 mg/kg BW), 0.019. Further, the “calculated EARtest value” was 0.040 on erythrocyte AChE [1] (single oral 2 mg/kg BW), 1.50 at erythrocyte AChE [1] (single oral 214 mg/kg BW) and 1.58 at erythrocyte AChE [1] (single oral 300 mg/kg BW). Also, the “no-observed-adverse-effect level (NOAEL) for toxic signs and symptoms” value on erythrocyte AChE [2] (human volunteers, fasted overnight, single oral dose) is recorded as 2 mg/kg BW. Further, the “inhibition of erythrocyte AChE” value at erythrocyte AChE [2] (human, in vivo, po, 2 mg/kg) is given as 28%. Further, on erythrocyte AChE [2] (human, in vivo), the “Erythrocyte AChE inhibition” value is 28%. The “reported or expected adverse health outcome” value is on record as “negative” on erythrocyte AChE [2] (human, single oral 0.01 mg/kg BW, 0.01 mg/kg); “No” at erythrocyte AChE [2] (human, single oral 0.01 mg/kg BW, listed as Chlorpyrifos, 0.01 mg/kg); “negative” on erythrocyte AChE [2] (human, single oral 0.012 mg/kg BW, 0.012 mg/kg); “No” at erythrocyte AChE [2] (human, single oral 0.012 mg/kg BW, listed as Chlorpyrifos, 0.012 mg/kg); “negative” on erythrocyte AChE [2] (human, single oral 0.03 mg/kg BW, 0.03 mg/kg); “No” on erythrocyte AChE [2] (human, single oral 0.03 mg/kg BW, listed as Chlorpyrifos, 0.03 mg/kg). For the same compound, the “reported or expected adverse health outcome” value at erythrocyte AChE [2] (human, single oral 0.1 mg/kg BW, 0.1 mg/kg) was “negative”; at erythrocyte AChE [2] (human, single oral 0.1 mg/kg BW, listed as Chlorpyrifos, 0.1 mg/kg), “No”; at erythrocyte AChE [2] (human, single oral 0.5 mg/kg BW, 0.5 mg/kg), “negative”; at erythrocyte AChE [2] (human, single oral 0.5 mg/kg BW, listed as Chlorpyrifos, 0.5 mg/kg), “No”; at erythrocyte AChE [2] (human, single oral 1 mg/kg BW, 1 mg/kg), “negative”; at erythrocyte AChE [2] (human, single oral 1 mg/kg BW, listed as Chlorpyrifos, 1 mg/kg) it was “No”. For the same compound, the “reported or expected adverse health outcome” value on erythrocyte AChE [2] (human, single oral 2 mg/kg BW, listed as Chlorpyrifos, 2 mg/kg) is listed as “No”; at erythrocyte AChE [2] (human, single oral 214 mg/kg BW, 214 mg/kg), “positive”; at erythrocyte AChE [2] (human, single oral 214 mg/kg BW, listed as Chlorpyrifos, 214 mg/kg) it was “Yes”; on erythrocyte AChE [2] (human, single oral 300 mg/kg BW, 300 mg/kg), “positive”; at erythrocyte AChE [2] (human, single oral 300 mg/kg BW, listed as Chlorpyrifos, 300 mg/kg) it was “Yes”. In data set [3], the “Oral absorption rate constant” value is 1.01 h⁻¹.
On erythrocyte AChE [4], `CCOP(=O)(OCC)Oc1cc(C)nc(C(C)C)n1` [diazoxon] displayed an IC50 of 1.82 µM. This lies in the single-digit micromolar range.
In the case of `COP(=S)(OC)Oc1ccc([N+](=O)[O-])cc1` [methyl parathion], the “calculated DCR value” is on record as 0.092 on erythrocyte AChE [1] (single oral 0.003 mg/kg BW); 0.89 at erythrocyte AChE [1] (single oral 0.029 mg/kg BW); 1.8 on erythrocyte AChE [1] (single oral 0.057 mg/kg BW); 9.2 on erythrocyte AChE [1] (single oral 0.30 mg/kg BW); 927 on erythrocyte AChE [1] (single oral 26 mg/kg BW). For the same compound, the “calculated EARtest value” is recorded as 3.6 × 10^–3 on erythrocyte AChE [1] (single oral 0.003 mg/kg BW); 0.035 at erythrocyte AChE [1] (single oral 0.029 mg/kg BW); 0.069 at erythrocyte AChE [1] (single oral 0.057 mg/kg BW); 0.36 at erythrocyte AChE [1] (single oral 0.30 mg/kg BW); 36.59 on erythrocyte AChE [1] (single oral 26 mg/kg BW). Moreover, the reported blood concentration on erythrocyte AChE [2] (286 mg/kg BW (20 g) acute oral, person, ref Luzhnikov et al. 1977) was 3 mg/L. Moreover, the “reported or expected adverse health outcome” value is reported as “negative” at erythrocyte AChE [2] (human, single oral 0.003 mg/kg BW, 0.003 mg/kg); “No” on erythrocyte AChE [2] (human, single oral 0.003 mg/kg BW, listed as Methyl parathion, 0.003 mg/kg); “negative” on erythrocyte AChE [2] (human, single oral 0.029 mg/kg BW, 0.029 mg/kg); “No” at erythrocyte AChE [2] (human, single oral 0.029 mg/kg BW, listed as Methyl parathion, 0.029 mg/kg); “negative” at erythrocyte AChE [2] (human, single oral 0.057 mg/kg BW, 0.057 mg/kg); “No” on erythrocyte AChE [2] (human, single oral 0.057 mg/kg BW, listed as Methyl parathion, 0.057 mg/kg). Further, the “reported or expected adverse health outcome” value is reported as “negative” at erythrocyte AChE [2] (human, single oral 0.30 mg/kg BW, 0.3 mg/kg); “No” at erythrocyte AChE [2] (human, single oral 0.30 mg/kg BW, listed as Methyl parathion, 0.3 mg/kg); “positive” at erythrocyte AChE [2] (human, single oral 26 mg/kg BW, 26 mg/kg); “Yes” at erythrocyte AChE [2] (human, single oral 26 mg/kg BW, listed as Methyl parathion, 26 mg/kg). Further, in data set [3], the “Oral absorption rate constant” value was 0.58 h⁻¹.
